How the values were obtained:
[1] = Retention time of the compound by UPLC-MS/MS method; type: physicochemical
[2] = Predicted human oral absorption (QikProp); conditions: in silico
[3] = biological target: T1, Monoglyceride lipase (Homo sapiens, UniProt Q99685); experiment: Inhibition of human MAGL using 4-Nitrophenylacetate substrate incubated for 15 mins
T1 sequence (Q99685 whole entry): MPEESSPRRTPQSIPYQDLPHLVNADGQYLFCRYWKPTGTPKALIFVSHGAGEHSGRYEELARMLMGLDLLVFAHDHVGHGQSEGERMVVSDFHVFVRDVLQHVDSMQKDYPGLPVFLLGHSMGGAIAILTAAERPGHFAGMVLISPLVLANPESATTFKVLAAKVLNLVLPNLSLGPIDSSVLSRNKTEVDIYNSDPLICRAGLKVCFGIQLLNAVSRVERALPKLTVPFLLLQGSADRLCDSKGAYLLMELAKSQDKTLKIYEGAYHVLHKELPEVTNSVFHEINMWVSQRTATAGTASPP

| Retention_time [1] | Fa [2] | IC50 [3] | Structure (SMILES) |
| --- | --- | --- | --- |
| 2.01 min | – | – | O=C(NCc1ccc2c(c1)OCO2)[C@@H]1CC(=O)N(c2ccc(OCc3ccccc3Cl)cc2)C1 |
| 1.72 min | 100% | – | O=C(Cn1nnc2ccccc21)Nc1ccc(-c2nc3ccccc3s2)cc1 |
| 1.55 min | 100% | – | Cc1cc(C)cc(NC(=O)[C@@H]2CC(=O)N(CCc3c[nH]c4ccc(F)cc34)C2)c1 |
| 2.26 min | 90.7% | > 100 µM | C[C@H]1CCCC[C@@H]1NC(=O)CC[C@@H]1NC(=O)N(CCc2c[nH]c3ccc(F)cc23)C1=O |
| 1.68 min | 77.9% | – | Cc1ccc(N2C[C@H](C(=O)NCc3n[nH]c(=O)c4ccccc34)CC2=O)cc1C |
| – | 100% | – | O=C(NCc1ccc2c(c1)OCO2)[C@H]1CC(=O)N(c2ccc(OCc3ccccc3Cl)cc2)C1 |
| 1.29 min | 100% | > 100 µM | O=C(COc1ccc2ccccc2c1)Nn1ccc2c(nnc3c(-c4ccc(F)cc4)cnn32)c1=O |
| – | 80.4% | – | COc1ccc2cc(-c3nc4sc(C(=O)Nc5ccccc5OC)cc4c(=O)[nH]3)c(=O)oc2c1 |

| Structure (SMILES) | Retention_time [1] | Fa [2] | IC50 [3] |
| --- | --- | --- | --- |
| COc1nn(-c2ccc(NC(=O)OCc3ccccc3)c(C)c2)c(=O)o1 | – | – | 0.02 µM |

Source: ChEMBL document CHEMBL3352148, “Docking based virtual screening and molecular dynamics study to identify potential monoacylglycerol lipase inhibitors” (Bioorg Med Chem Lett, 2014)
